{
  "source": "paper PMC8880313",
  "about": "“Discovery of Novel Andrographolide Derivatives as Antiviral Inhibitors against Human Enterovirus A71” (Pharmaceuticals, 2022)",
  "key": {"[1]": {"test_system": "EV-A71 IRES", "experiment": "Bicistronic luciferase reporter assay", "format": "cell-based, human enterovirus A71 (EV-A71) strain 41", "conditions": "RD cells, various concentrations, 12 h", "experimental": "To validate this finding, we also transfected RD cells with a bicistronic reporter construct which had been established and validated previously. Similarly, the transfected cells were treated with ZAF-47 at various concentrations and then incubated for 12 h before luminescence detection. The construct comprises a human cytomegalovirus (CMV) promoter with a downstream Renilla luciferase (R Luc) gene and an EV-A71 strain 41 IRES with a downstream firefly luciferase (F Luc) gene (Figure 4f). This means that R Luc can be expressed by the CMV promoter via cap-dependent translation while F Luc can be expressed by the EV-A71 IRES via cap-independent translation. An accurate determination of IRES activity would be to use the ratio of F Luc luminescence reading to R Luc luminescence reading (F Luc/R Luc). The transfected cells were also treated with negative control, DMSO and positive control, apigenin, an EV-A71 IRES inhibitor [53].\nSeeded 96-well white plates (Corning), with 2 × 10^4 RD cells per well, were incubated overnight at 37 °C with 5% CO2. After which, a bicstronic luciferase reporter construct was used to transfect the cells, as described in our previous work, for 12 h at 37 °C with 5% CO2. […]"}, "[2]": {"test_system": "CV-A24", "experiment": "Post-treatment assay, antiviral spectrum", "format": "cell-based, Coxsackievirus A24", "experimental": "(§1) We were also interested in the antiviral potential of ZAF-47 against other Enteroviruses. As such, we performed post-treatment assay on RD cells infected with other Enteroviruses such as CV-A16, CV-A6, Echo7, CV-B5, CV-A24 and EV-D68.\n(§2) To determine the inhibitory profiles of the hits, post treatment assay was performed. Seeded 24-well plates, with 1.5 × 10^5 RD cells per well, were incubated overnight at 37 °C with 5% CO2. The seeded cells were infected with EV-A71 (100 µL per well, MOI = 1) for 1 h at 37 °C with 5% CO2 and then rinsed with 1 mL of PBS twice. Different concentrations of the hits were used to treat the infected cells for 12 h at 37 °C with 5% CO2. At 12 hpi, the plates were frozen and thawed for 2 cycles (−80°C; 37 °C) before collection of supernatants to measure the viral titres via viral plaque assay.\n(§3) Measurement of the viral titres from collected supernatants was derived from viral plaque assays. To do this, 24-well plates, seeded with 2.4 × 10^5 RD cells per well, were used in plaque assays for EV-A71, EV-D68, Echo7, CV-A6, CV-A16 and CV-A24 while 24-well plates, seeded with 1.2 × 10^5 Vero cells per well, were used in plaque assays for CV-B5. Seeded cells were incubated overnight at 37 °C with 5% CO2. […] Subsequent formation of viral plaques was counted manually to quantify the viral titre in PFU/mL […]"}, "[3]": {"test_system": "Echo7", "experiment": "Post-treatment assay, antiviral spectrum", "format": "cell-based, Echovirus 7 strain Wallace", "experimental": "as §1, §2, §3"}, "[4]": {"test_system": "EV-D68", "experiment": "Post-treatment assay, antiviral spectrum", "format": "cell-based, Enterovirus D68", "experimental": "as §1, §2, §3"}, "[5]": {"test_system": "EV-A71", "experiment": "Post-treatment assay with viral plaque assay", "format": "cell-based, human enterovirus A71 (EV-A71) strain 41", "conditions": "for reduction in viral titre: post-treatment, 12 hpi", "experimental": "Firstly, we performed cell viability assay to evaluate the cytotoxicity profile of the 19 hits. Cells seeded overnight were treated with the hit compounds at 10 µM. […] Anti-EV-A71 activity of AGP-253 had been illustrated and discussed previously. We were particularly interested in ZAF-46 and ZAF-47 as they belonged to the same series bearing novel 14-quinolinoxy and 17-hydro-8,9-olefin modifications (Figure 2b) that could potentially open up new targets for EV-A71 therapeutics. Additional cell viability assays were performed for ZAF-46 and ZAF-47 at different concentrations to identify the low cytotoxic concentrations for downstream post-treatment assays. For post-treatment assays, cells seeded overnight were infected with EV-A71 and subsequently treated with ZAF-46 and ZAF-47 at different concentrations. […] Treatment with ZAF-46 led to 1.4 log reduction at 10 µM and 2.4 log reduction at 20 µM (Figure 2c) while treatment with ZAF-47 led to 0.8 log reduction at 5 µM, 1.1 log reduction at 10 µM and 2.1 log reduction at 20 µM (Figure 2d). CC50 and IC50 for both compounds were determined and used to derive their SI (Table 2). ZAF-47 was selected for further downstream analysis due to its higher SI value which indicate higher pharmacological value for clinical use.\nas §2\nMeasurement of the viral titres from collected supernatants was derived from viral plaque assays. To do this, 24-well plates, seeded with 2.4 × 10^5 RD cells per well, were used in plaque assays for EV-A71, EV-D68, Echo7, CV-A6, CV-A16 and CV-A24 while 24-well plates, seeded with 1.2 × 10^5 Vero cells per well, were used in plaque assays for CV-B5. Seeded cells were incubated overnight at 37 °C with 5% CO2. Viral supernatants were diluted from 10^−1 to 10^−7 in reduced serum DMEM before infecting the cells with a volume of 100 µL for 1 h at 37 °C with 5% CO2 (33 °C instead for EV-D68). Cells were rinsed twice with PBS before overlaying with 1 mL of reduced serum DMEM containing 0.5% agarose (Vivantis, Shah Alam, Malaysia). Cells infected with Echo7 supernatants were incubated for 2 days, cells infected with CV-A24 and CV-B5 supernatants were incubated for 3 days and cells infected with EV-A71, CV-A6, CV-A16 and EV-D68 supernatants were incubated for 4 days for the formation of plaques. Subsequently, the cells were fixed and stained overnight with 4% paraformaldehyde and 1% crystal violet (Sigma-Aldrich). Subsequent formation of viral plaques was counted manually to quantify the viral titre in PFU/mL"}},
  "data": [
    {"smiles": "CC(=O)OC[C@]1(C)C(=O)CC[C@@]2(C)C(C/C=C3/C(=O)OC[C@@H]3Oc3cccc4cccnc34)=C(C)CC[C@@H]21", "note": "[ZAF-47, (14β)-(8′-Quinolinoxy)-3-ketone-9-dehydro-17-hydro-19-acetoxy–andrographolide]", "values": [
      {"measurement": "IRES activity (F Luc/R Luc)", "setting": "[1]", "result": "did not reduce IRES activity"},
      {"measurement": "viral titre", "setting": "[2]; 10 µM, CV-A24-infected RD cells", "result": "reducing the viral titres of the above-listed enteroviruses significantly"},
      {"measurement": "IC50", "setting": "[2]; CVA24, CV-A24, Enterovirus C, drug treatment duration 12 h, RD cells", "result": 1.09, "unit": "µM"},
      {"measurement": "viral titre", "setting": "[3]; 10 µM, Echo7-infected RD cells", "result": "reducing the viral titres of the above-listed enteroviruses significantly"},
      {"measurement": "IC50", "setting": "[3]; Echo7, Enterovirus B, drug treatment duration 12 h, RD cells", "result": 6.7, "unit": "µM"},
      {"measurement": "viral titre", "setting": "[4]; 10 µM, EV-D68-infected RD cells", "result": "reducing the viral titres of the above-listed enteroviruses significantly"},
      {"measurement": "IC50", "setting": "[4]; EVD68, EV-D68, Enterovirus D, drug treatment duration 12 h, RD cells", "result": 5.1, "unit": "µM"},
      {"measurement": "reduction in viral titre", "setting": "[5]; 5 µM", "result": 0.8, "unit": "log"},
      {"measurement": "reduction in viral titre", "setting": "[5]; 10 µM", "result": 1.1, "unit": "log"},
      {"measurement": "reduction in viral titre", "setting": "[5]; 20 µM", "result": 2.1, "unit": "log"},
      {"measurement": "IC50", "setting": "[5]; Enterovirus A, EVA71, EV-A71-infected RD cells, MOI = 1, 12 h treatment, viral plaque assay", "result": 2.06, "unit": "µM"},
      {"measurement": "Selectivity Index (SI)", "setting": "[5]; SI = CC50/IC50", "result": 14.35}
    ]}
  ]
}
